Experimental data: ChEMBL document CHEMBL5579824, “Novel Hsp90-Targeting PROTACs: Enhanced synergy with cisplatin in combination therapy of cervical cancer” (Eur J Med Chem, 2024)

Columns and labels:
SiHa [1] = test: Synergistic antiproliferative activity against human SiHa cells assessed as combination index at 0.1 uM incubated for 72 hrs in presence of 0.01 uM cisplatin by CCK-8 assay; format: functional
[2] = Toxicity in BALB/c nude mouse xenografted with human SiHa cells assessed as body weight weight loss at 2 mg/kg, ip co-treated with cisplatin separately for every two days; format: organism-based; details: in vivo
SiHa [3] = test: Induction of cell cycle arrest in human SiHa cells assessed as accumulation of cells at G1 pahse at 10 uM incubated after 48 hrs by PI staining based flow cytometry (reference value: 83.90 %); format: functional
SiHa [4] = test: Synergistic antiproliferative activity against human SiHa cells assessed as combination index at 0.05 uM incubated for 72 hrs in presence of 10 uM cisplatin by CCK-8 assay; format: functional
SiHa [5] = test: Synergistic antiproliferative activity against human SiHa cells assessed as combination index at 0.75 uM incubated for 72 hrs in presence of 3.16 uM cisplatin by CCK-8 assay; format: functional
SiHa [6] = test: Synergistic antiproliferative activity against human SiHa cells assessed as combination index at 0.5 uM incubated for 72 hrs in presence of 0.03 uM cisplatin by CCK-8 assay; format: functional
SiHa [7] = test: Induction of cell cycle arrest in human SiHa cells assessed as accumulation of cells at S pahse at 2.5 uM incubated after 48 hrs by PI staining based flow cytometry (reference value: 8.51 %); format: functional
SiHa [8] = test: Synergistic antiproliferative activity against human SiHa cells assessed as combination index at 10 uM incubated for 72 hrs in presence of 10 uM cisplatin by CCK-8 assay; format: functional
SiHa [9] = test: Synergistic antiproliferative activity against human SiHa cells assessed as combination index at 0.05 uM incubated for 72 hrs in presence of 0.01 uM cisplatin by CCK-8 assay; format: functional
SiHa [10] = test: Synergistic antiproliferative activity against human SiHa cells assessed as combination index at 10 uM incubated for 72 hrs in presence of 0.32 uM cisplatin by CCK-8 assay; format: functional
SiHa [11] = test: Induction of apoptosis in human SiHa cells assessed as viable cells at 10 uM incubated after 48 hrs by annexin V-FITC/PI staining based flow cytometry (reference value: 90.4 %); format: functional; details: read-out: Activity

SMILES: CC1(C)CC(=O)c2c(C(F)(F)F)nn(-c3ccc(C(N)=O)c(N[C@H]4CC[C@H](OC(=O)CNC(=O)CCCCCCCNc5cccc6c5CN(C5CCC(=O)NC5=O)C6=O)CC4)c3)c2C1 (stereo partly specified)
- CI (SiHa [1]): 3.04
- Activity [2]: Non-Toxic
- Activity (SiHa [3]): 62.26%
- CI (SiHa [4]): 1.26
- CI (SiHa [5]): 0.17
- CI (SiHa [6]): 0.14
- Activity (SiHa [7]): 21.18%
- CI (SiHa [8]): 1.1
- CI (SiHa [9]): 1.83
- CI (SiHa [10]): 1.89
- viability at 10 µM (SiHa [11]): 51.9%
